{"source": "patent US10864192B2", "about": "“Compositions and methods for inhibiting brain trauma-induced neurodegeneration and related conditions” (priority 2016, dated 2020)", "key": {"SH-SY5Y cells": {"tested_on": "SH-SY5Y cells", "assay": "Oxygen-glucose deprivation/reperfusion (OGD/RP) damage on SH-SY5Y cells", "format": "cell-based, human", "experimental": "(§1) Briefly, Human neuroblastoma SH-SY5Y cells were incubated in oxygen-glucose deprivation and hypoxia using serum- and glucose-free media and 95% N2 and 5% CO2 for 5 minutes. Adult male Sprague-Dawley rats (250 to 350 g weight) were anesthetized with chloral hydrate (0.4 g/kg, intraperitoneally) and right middle cerebral artery (MCA) was ligated for 60 minutes. The core body temperature of animals was maintained at 37° C. throughout the procedure."}, "clinical": {"assay": "clinical", "description": "FIGS. 33-34 depict two graphs from an Excel spreadsheet. FIG. 33 is a linear plot of plasma level vs time and FIG. 34 is a semi-log plot of plasma conc. vs time."}, "[1]": {"tested_on": "acetyl- and butyrylcholinesterase", "assay": "Cholinesterase inhibition in mice after the final dose", "format": "in vivo, mouse", "details": "24 hours following the final dose", "description": "The same model of concussive head injury described above with respect to FIG. 7 was used in the experiments described below with respect to FIGS. 8 and 9. […] Previous studies of drug and metabolite concentrations have shown acetylcholinesterase inhibition to be present when any concentration of drug or metabolite have been detected. […] Drug and its metabolites have been shown undetectable when no anticholinesterase activities are present."}, "[2]": {"assay": "Plasma concentrations of phenserine and its metabolites in beagle dog plasma", "format": "in vivo"}, "Lipophilicity (Log D)": {"assay": "Lipophilicity (Log D)", "format": "physicochemical"}, "[3]": {"tested_on": "cultured hippocampal neurons", "assay": "Glutamate-induced excitotoxicity in cultured neurons", "format": "cell-based, rat (Sprague Dawley)", "details": "phenserine 5 μM, glutamate 50 μM, 24 hr", "experimental": "Briefly, cultured hippocampal neurons in triplicate were prepared from 18-20 day rat (Sprague Dawley) embryos and were cultured for 7 days. […] Neuronal viability was assessed 24 hr after addition of glutamate. The results are plotted as percent neuronal survival±SEM. […] Twenty-four hours later cell viability was quantified (by MTS assay—using, for example but not limited to, the CellTiter 96 Aqueous One Solution Cell Proliferation Assay kit (Promega, Madison, Wis., USA) according to the manufacturer's instructions)."}, "[4]": {"biological_target": "amyloid precursor protein (APP) (Mus musculus (Mouse), UniProt P12023)", "sequence (P12023 whole entry, looked up)": "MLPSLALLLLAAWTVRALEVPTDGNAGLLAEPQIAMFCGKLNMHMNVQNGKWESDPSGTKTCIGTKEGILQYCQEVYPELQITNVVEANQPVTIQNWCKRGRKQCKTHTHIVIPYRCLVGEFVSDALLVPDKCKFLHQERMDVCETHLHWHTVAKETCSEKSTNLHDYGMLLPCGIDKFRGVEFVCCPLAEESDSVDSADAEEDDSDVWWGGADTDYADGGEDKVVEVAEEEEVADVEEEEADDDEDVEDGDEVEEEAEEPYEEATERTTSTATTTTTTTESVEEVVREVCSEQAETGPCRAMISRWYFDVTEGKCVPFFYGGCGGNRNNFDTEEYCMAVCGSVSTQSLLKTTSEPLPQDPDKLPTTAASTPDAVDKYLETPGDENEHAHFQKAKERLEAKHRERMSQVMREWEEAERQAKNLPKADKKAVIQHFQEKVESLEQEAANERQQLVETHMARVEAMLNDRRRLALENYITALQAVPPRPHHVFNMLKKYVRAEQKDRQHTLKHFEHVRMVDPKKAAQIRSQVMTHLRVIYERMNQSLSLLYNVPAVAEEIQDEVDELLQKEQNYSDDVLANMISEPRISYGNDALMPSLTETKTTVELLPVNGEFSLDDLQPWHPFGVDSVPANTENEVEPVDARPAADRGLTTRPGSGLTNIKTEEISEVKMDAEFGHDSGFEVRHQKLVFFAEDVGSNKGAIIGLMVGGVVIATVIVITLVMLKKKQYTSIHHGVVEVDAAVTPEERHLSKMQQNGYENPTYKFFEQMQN", "assay": "Amyloid precursor protein in primary cortical neurons (Western blot)", "format": "cell-based", "details": "48 hr", "experimental": "Primary cortical neurons were harvested and isolated from mice, and then were cultured in line with methodologies known in the art. In brief, embryonic day 15-18 mouse pups were obtained from timed pregnant female mice (5 pups). Within a laminar flow cell culture hood, the brain was removed from these mouse pups and the meninges and blood vessels were carefully removed. […] Maintained on wet ice, individual cells were then isolated by titrating some 10 times to dissociate cells by use of using a glass pasture pipette with a fire polished tip. […]\nFollowing maintenance in cell culture (>24 hr) primary cortical neurons were challenged to known concentrations of experimental drugs for 48 hr, or vehicle (culture media) alone. […] Quantification of select proteins, for example AAP was undertaken by Western Blotting using the APP N-terminal antibody (22C11) obtained from Chemicon (Temecula, Calif.). The housekeeping protein β-actin quantified in the same samples to allow normalization, and was probed with anti-β-actin (Chemicon). The Western blots were developed by using chemiluminescence (PIERCE), were visualized with a Phospholmager (BioRad, Hercules, Calif.), and resulting bands were quantified by QuantityOne software (BioRad)."}, "Sprague-Dawley rats": {"tested_on": "Sprague-Dawley rats", "assay": "Focal cerebral ischemia model (MCA ligation), pre-treatment", "format": "in vivo, rat", "experimental": "as §1"}, "wild-type mice": {"tested_on": "wild-type mice", "assay": "Concussive mTBI in wild-type mice, immunohistochemistry 72 hr post injury", "format": "in vivo, mouse", "details": "72 hr post TBI", "experimental": "FIG. 18 illustrates (−)-Phenserine administration preventing mTBI-induced neurodegeneration in hippocampus and lateral cortex (72 hr post concussive TBI). […] Representative images of FJC staining in hippocampus (CA1) Magnification 60× (n=5/group; *p<0.05, **p<0.01, ***p<0.001 vs. Control (CTRL) sham by Tukey's post hoc test; ^^p<0.01 vs. mTBI alone by Tukey's post hoc test).\nNeuroinflammation was evaluated by counting activated microglial cells experessing the marker IBA1 as well as by counting microglial cells co-expressing IBA1 and immunoreactivity for the pro-inflammatory cytokine TNF-α (Anti-IBA1 antibody: Abcam; anti-TNF-α antibody: Abbiotec). As evident in FIG. 20, activated microglial (IBA1 positive (+) staining) cells—a classical marker of neuroinflammation—were elevated in wild-type mice challenged with mTBI. (−)-Phenserine post-treatment mitigated this mTBI-induced effect (FIG. 20). Likewise, mTBI challenge induced a rise in IBA1+ activated microglial cells expressing the pro-inflammatory marker TNF-α (FIG. 21), which was similarly mitigated by (−)-phenserine post-treatment.\n(−)-Phenserine mitigates losses in synaptic integrity in wild and Tg mice subjected to weight drop injury. To evaluate whether mTBI-induced elevations in markers of cell loss (FJC) and neuroinflammation (TNF-α and IBA1+) are allied with a loss of synaptic integrity (which associates with cognitive loss (Wakade et al., 2010)), post- and pre-synaptic protein markers of synaptic integrity (post-synaptic density-95 (PSD-95) and synaptophysin, respectively) were immunohistochemically stained and quantified in control (w/o head injury) and mTBI challenged mice post-treated with vehicle or (−)-phenserine. […] These declines were mitigated by post treatment with (−)-phenserine. An alike trend was evident in mTBI challenged APP/PS1 AD Tg mice, and these reductions in post- and presynaptic proteins were similarly mitigated by post-treatment with (−)-phenserine (FIG. 25)"}, "[5]": {"details": "pre-treatment, brain and SH-SY5Y cells"}}, "note": "Several values for one entry are separate records, joined by “and”; a condition that tells them apart may be missing. Identical values can stand only once."}
{"smiles": "CN1CC[C@@]2(C)c3cc(OC(=O)Nc4ccccc4)ccc3N(C)[C@@H]12", "note": "[phenserine, (−)-phenylcarbamoyleseroline]", "values": [{"measurement": "matrix metallopeptidase 9 (MMP-9)", "setting": "SH-SY5Y cells", "result": "reduced"}, {"measurement": "Cmax", "setting": "clinical; human, in vivo, 15 mg", "result": "3.02 ng/mL and 8.9 nM"}, {"measurement": "expected plasma levels", "setting": "clinical; targeted 30 mg/d or 60 mg/d in sustained release formulation", "result": "1.58 to 0.53", "unit": "ng/ml"}, {"measurement": "inhibition of acetyl- and butyrylcholinesterase", "setting": "[1]", "result": "no inhibition"}, {"measurement": "Average Plasma Concentrations", "setting": "[2]; Hour 1", "result": 4.95, "unit": "ng/mL"}, {"measurement": "Average Plasma Concentrations", "setting": "[2]; Hour 2", "result": 15.4, "unit": "ng/mL"}, {"measurement": "Average Plasma Concentrations", "setting": "[2]; Hour 3", "result": 0.71, "unit": "ng/mL"}, {"measurement": "Average Plasma Concentrations", "setting": "[2]; Hour 4", "result": 0.97, "unit": "ng/mL"}, {"measurement": "logD", "setting": "Lipophilicity (Log D)", "result": 2.2}, {"measurement": "cell viability (percent neuronal survival)", "setting": "[3]", "result": "73.5 % of control levels"}, {"measurement": "amyloid precursor protein level", "setting": "[4]", "result": "inhibition of amyloid precursor protein"}, {"measurement": "B-cell lymphoma 2 (Bcl-2) expression", "setting": "Sprague-Dawley rats; pre-treatment", "result": "increased"}, {"measurement": "body symmetry", "setting": "Sprague-Dawley rats; pre-treatment", "result": "improved"}, {"measurement": "brain-derived neurotrophic factor (BDNF) expression", "setting": "Sprague-Dawley rats; pre-treatment", "result": "increased"}, {"measurement": "cell death", "setting": "Sprague-Dawley rats; pre-treatment", "result": "reduced"}, {"measurement": "glial fibrillary acidic protein (GFAP) expression", "setting": "Sprague-Dawley rats; pre-treatment", "result": "decreased"}, {"measurement": "brain infarction area", "setting": "Sprague-Dawley rats; pre-treatment twice daily prior to MCA occlusion", "result": "reduced"}, {"measurement": "activated-caspase 3 levels", "setting": "Sprague-Dawley rats; [5]", "result": "decreased"}, {"measurement": "amyloid precursor protein (APP) expression", "setting": "Sprague-Dawley rats; [5]", "result": "decreased"}, {"measurement": "mTBI-induced neurodegeneration (Fluoro-Jade C+ cells)", "setting": "wild-type mice; 5 mg/kg BID, hippocampus and lateral cortex", "result": "fully counteracted"}, {"measurement": "mTBI-induced reductions in synaptophysin and PSD-95", "setting": "wild-type mice", "result": "mitigated"}, {"measurement": "mTBI-induced activation of microglia (IBA1+ cells)", "setting": "wild-type mice; hippocampus and lateral cortex", "result": "mitigated"}, {"measurement": "mTBI-induced elevations in TNF-α within microglia (co-localized TNF-α and IBA1+ cells)", "setting": "wild-type mice; hippocampus and lateral cortex", "result": "mitigated"}]}
